We go through six compounds from patent US20240018153A1, “BENZENESULFONAMIDE DERIVATIVES AND USES THEREOF” (2692372 ONTARIO, INC., priority 2020, published 2024).

What all share (assay type): biochemical
The target of one experiment is EGFR (Homo sapiens (Human), UniProt P00533). Nature of the experiment: HTRF KinEASE-TK kinase assay, EGFR. The following applies: 3 h preincubation; for remaining activity at 1 µM: 1 μM compound, read-out: % EGFR Remaining activity vs DMSO (1 μM, 3 h); for remaining activity at 10 µM: 10 μM compound, read-out: % EGFR Remaining activity vs DMSO (10 μM, 3 h). As to the method:
Kinase activity was monitored using a HTRF® KinEASE-TK kit from Cisbio (62TK0PEC). The buffer used was 1× kinase buffer supplemented with 2 mM MnCl2, 5 mM MgCl2, 1 mM TCEP and 100× diluted Supplementary Enzyme Buffer. EGFR was purchased from Promega. […] Reaction with substrate was then initiated by adding biotinylated substrate and ATP. […] After 60 min of incubation, the fluorescence emission was measured at 620 nm and 665 nm. The ratio of Em 665 nm to Em 620 nm was proportional to the amount of substrate phosphorylated by the kinase.
For initial screening, enzymes were pre incubated with compounds at 2 different concentrations (1 and 10 uM final) and 0.5% DMSO.
In general terms: Time-resolved FRET reads energy transfer from a long-lived donor to a nearby acceptor.

The next experiment deals with BMX (Homo sapiens (Human), UniProt P51813). In words: HTRF KinEASE-TK kinase assay, BMX. The note with it: for remaining activity at 1 µM: 1 uM compound; for remaining activity at 1 µM / remaining activity at 10 µM: 3 h preincubation; for remaining activity at 10 µM: 10 uM compound. The procedure: (§1) Kinase activity was monitored using a HTRF® KinEASE-TK kit from Cisbio (62TK0PEC). […] BMX was purchased from Promega. 0.333 ng/ul BMX (3.03 nM) was preincubated in the absence or presence of inhibitor at room temperature for 3 hours. The reaction with substrate was then initiated by adding biotinylated substrate and ATP. […] Reaction was terminated by adding 31.25 nM SA-XL665 and 100 fold diluted europium labelled antibody (Eu-Ab), diluted in 1× detection buffer that contained EDTA. After 60 min of incubation, the fluorescence emission was measured at 620 nm and 665 nm. The ratio of Em 665 nm to Em 620 nm was proportional to the amount of substrate phosphorylated by the kinase.

The next experiment concerns the target JAK3 (Homo sapiens (Human), UniProt P52333). Nature of the experiment: HTRF KinEASE-TK kinase assay, JAK3. The note with it: for remaining activity at 1 µM: read-out: % JAK3 Remaining activity vs DMSO (1 μM, 3 h); for remaining activity at 10 µM: read-out: % JAK3 Remaining activity vs DMSO (10 μM, 3 h). As to the method: as §1, with “JAK-3” for “BMX”, “0.0133” for “0.333”, “JAK3 (0.21” for “BMX (3.03”, “Reaction” for “The reaction”, “The reaction” for “Reaction”

Another experiment addresses FGFR4 (Homo sapiens (Human), UniProt P22455). In words: HTRF KinEASE-TK kinase assay, FGFR4. The note with it: for remaining activity at 1 µM: read-out: % FGFR4 Remaining activity vs DMSO (1 μM, 3 h); for remaining activity at 10 µM: read-out: % FGFR4 Remaining activity vs DMSO (10 μM, 3 h); for IC50: dose response. As to the method: as §1, with “FGFR-4” for “BMX”, “FGFR4 (5.12” for “BMX (3.03”, “Reaction” for “The reaction”, “The reaction” for “Reaction”

Another experiment has as its target RIPK2 (Homo sapiens (Human), UniProt O43353). Nature of the experiment: In vitro RIPK2 inhibition. The following applies: for remaining activity at 1 µM: read-out: % RIPK2 Remaining activity vs DMSO (1 μM, 3 h); for remaining activity at 10 µM: read-out: % RIPK2 Remaining activity vs DMSO (10 μM, 3 h).
The target of a further experiment is BTK (Homo sapiens (Human), UniProt Q06187). In words: HTRF KinEASE-TK kinase assay, BTK. The following applies: 3 h preincubation; for remaining activity at 1 µM: 1 μM compound, read-out: % BTK Remaining activity vs DMSO (1 μM, 3 h); for remaining activity at 10 µM: 10 μM compound, read-out: % BTK Remaining activity vs DMSO (10 μM, 3 h). The procedure: Kinase activity was monitored using a HTRF® KinEASE-TK kit from Cisbio (62TK0PEC). For BTK, the 1× kinase buffer was supplemented with 10 mM MnCl2, 5 mM MgCl2, 1 uM ATPγS, 1 mM TCEP and 100 fold diluted Supplementary Enzyme Buffer. BTK was purchased from Promega. […] Reaction with substrate was then initiated by adding biotinylated substrate and ATP and the reaction was allowed to proceed for 45 min. […] After 60 min of incubation, the fluorescence emission was measured at 620 nm and 665 nm. The ratio of Em 665 nm to Em 620 nm was proportional to the amount of substrate phosphorylated by the kinase.
Chain of BTK (Q06187 whole entry): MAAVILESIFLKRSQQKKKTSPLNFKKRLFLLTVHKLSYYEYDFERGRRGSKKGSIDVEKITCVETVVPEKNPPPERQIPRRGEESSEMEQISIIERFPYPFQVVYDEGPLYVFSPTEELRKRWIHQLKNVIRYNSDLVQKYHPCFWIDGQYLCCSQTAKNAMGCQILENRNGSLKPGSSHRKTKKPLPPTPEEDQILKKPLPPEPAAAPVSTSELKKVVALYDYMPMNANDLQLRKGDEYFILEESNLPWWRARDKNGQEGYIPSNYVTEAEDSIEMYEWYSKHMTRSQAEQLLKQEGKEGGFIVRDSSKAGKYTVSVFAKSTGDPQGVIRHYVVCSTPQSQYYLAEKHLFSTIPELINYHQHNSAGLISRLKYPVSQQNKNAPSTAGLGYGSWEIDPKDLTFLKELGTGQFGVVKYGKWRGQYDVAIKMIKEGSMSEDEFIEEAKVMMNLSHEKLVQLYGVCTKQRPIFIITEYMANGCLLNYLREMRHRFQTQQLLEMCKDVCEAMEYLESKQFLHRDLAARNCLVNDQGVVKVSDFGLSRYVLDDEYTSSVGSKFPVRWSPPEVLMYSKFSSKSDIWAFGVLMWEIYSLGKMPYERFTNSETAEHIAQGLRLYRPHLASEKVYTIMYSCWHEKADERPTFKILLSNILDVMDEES

Chain of EGFR (P00533 25-1210): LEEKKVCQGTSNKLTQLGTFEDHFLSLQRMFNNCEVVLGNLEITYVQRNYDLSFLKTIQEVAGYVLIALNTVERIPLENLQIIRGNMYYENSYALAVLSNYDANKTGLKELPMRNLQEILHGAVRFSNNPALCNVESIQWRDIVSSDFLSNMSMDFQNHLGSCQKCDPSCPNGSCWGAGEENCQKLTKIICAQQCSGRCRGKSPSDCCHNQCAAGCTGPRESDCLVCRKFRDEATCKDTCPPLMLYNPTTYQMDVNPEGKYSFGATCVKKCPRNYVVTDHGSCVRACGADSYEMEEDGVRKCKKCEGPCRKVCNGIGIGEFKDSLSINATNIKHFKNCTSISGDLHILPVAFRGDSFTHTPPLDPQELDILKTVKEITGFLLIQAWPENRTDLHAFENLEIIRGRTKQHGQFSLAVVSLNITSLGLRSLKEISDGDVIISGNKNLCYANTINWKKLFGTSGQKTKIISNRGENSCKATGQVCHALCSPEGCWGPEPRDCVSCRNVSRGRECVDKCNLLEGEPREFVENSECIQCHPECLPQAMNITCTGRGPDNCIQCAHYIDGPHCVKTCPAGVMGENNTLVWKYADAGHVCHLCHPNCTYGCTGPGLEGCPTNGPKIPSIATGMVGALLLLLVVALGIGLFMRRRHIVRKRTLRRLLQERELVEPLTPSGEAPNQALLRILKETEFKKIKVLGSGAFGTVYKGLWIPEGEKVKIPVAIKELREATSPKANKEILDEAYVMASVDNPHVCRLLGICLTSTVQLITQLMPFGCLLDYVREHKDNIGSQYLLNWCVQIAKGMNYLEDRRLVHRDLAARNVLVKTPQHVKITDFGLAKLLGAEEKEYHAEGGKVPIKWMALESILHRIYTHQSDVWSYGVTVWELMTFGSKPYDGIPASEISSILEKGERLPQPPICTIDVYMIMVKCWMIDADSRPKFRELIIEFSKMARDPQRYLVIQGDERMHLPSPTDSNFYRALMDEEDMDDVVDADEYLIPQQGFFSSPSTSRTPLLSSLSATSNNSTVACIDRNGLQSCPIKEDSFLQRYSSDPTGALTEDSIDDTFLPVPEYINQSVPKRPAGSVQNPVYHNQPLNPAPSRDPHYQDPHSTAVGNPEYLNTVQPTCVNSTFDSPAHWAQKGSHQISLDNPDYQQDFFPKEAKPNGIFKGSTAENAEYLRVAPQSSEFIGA
Chain of BMX (P51813 whole entry): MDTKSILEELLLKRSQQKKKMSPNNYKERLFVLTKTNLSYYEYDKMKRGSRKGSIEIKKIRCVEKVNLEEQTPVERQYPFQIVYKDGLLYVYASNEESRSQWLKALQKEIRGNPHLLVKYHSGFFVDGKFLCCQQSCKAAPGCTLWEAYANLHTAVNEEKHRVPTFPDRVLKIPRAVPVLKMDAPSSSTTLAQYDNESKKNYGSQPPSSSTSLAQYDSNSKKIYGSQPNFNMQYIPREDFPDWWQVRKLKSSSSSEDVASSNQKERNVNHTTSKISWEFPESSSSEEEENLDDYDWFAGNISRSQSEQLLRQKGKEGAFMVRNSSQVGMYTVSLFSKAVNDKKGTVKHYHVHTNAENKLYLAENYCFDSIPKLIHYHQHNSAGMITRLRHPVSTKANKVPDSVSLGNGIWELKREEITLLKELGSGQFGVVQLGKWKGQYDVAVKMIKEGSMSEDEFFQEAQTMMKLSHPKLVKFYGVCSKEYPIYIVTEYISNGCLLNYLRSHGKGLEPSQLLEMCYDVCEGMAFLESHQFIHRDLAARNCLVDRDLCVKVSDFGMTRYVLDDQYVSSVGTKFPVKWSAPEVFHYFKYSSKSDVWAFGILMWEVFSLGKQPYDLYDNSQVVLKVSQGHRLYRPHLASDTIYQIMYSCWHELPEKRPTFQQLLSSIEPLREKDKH
Chain of JAK3 (P52333 781-1124): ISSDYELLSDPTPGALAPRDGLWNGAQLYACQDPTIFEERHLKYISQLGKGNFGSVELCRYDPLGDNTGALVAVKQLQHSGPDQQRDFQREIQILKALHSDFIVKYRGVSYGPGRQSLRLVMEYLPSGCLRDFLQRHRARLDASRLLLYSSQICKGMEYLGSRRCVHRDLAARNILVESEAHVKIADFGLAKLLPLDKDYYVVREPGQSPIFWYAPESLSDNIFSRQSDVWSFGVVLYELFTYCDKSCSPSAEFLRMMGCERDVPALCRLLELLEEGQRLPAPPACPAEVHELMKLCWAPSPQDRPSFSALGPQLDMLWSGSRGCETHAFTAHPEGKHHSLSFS
Chain of FGFR4 (P22455 22-802): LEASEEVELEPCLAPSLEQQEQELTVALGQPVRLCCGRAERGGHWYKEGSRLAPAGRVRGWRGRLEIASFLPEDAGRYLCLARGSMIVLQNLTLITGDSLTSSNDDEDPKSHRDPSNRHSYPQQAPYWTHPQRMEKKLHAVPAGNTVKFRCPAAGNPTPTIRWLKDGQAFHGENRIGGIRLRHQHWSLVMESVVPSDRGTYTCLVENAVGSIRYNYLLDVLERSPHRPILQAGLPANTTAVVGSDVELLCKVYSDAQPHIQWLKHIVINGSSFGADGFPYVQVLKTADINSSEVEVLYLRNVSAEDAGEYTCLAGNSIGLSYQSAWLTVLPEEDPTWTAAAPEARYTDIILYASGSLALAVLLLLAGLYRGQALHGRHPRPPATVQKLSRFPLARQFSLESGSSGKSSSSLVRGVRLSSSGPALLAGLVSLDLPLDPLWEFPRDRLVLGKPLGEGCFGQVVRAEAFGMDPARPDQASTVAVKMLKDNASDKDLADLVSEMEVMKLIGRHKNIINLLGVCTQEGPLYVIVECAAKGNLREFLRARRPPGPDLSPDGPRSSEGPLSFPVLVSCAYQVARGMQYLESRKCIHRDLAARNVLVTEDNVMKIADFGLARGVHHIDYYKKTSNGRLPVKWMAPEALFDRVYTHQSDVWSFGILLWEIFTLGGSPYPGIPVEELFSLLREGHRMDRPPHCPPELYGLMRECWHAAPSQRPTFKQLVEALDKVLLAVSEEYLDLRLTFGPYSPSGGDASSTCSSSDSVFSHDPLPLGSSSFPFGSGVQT
Chain of RIPK2 (O43353 whole entry, species assumed): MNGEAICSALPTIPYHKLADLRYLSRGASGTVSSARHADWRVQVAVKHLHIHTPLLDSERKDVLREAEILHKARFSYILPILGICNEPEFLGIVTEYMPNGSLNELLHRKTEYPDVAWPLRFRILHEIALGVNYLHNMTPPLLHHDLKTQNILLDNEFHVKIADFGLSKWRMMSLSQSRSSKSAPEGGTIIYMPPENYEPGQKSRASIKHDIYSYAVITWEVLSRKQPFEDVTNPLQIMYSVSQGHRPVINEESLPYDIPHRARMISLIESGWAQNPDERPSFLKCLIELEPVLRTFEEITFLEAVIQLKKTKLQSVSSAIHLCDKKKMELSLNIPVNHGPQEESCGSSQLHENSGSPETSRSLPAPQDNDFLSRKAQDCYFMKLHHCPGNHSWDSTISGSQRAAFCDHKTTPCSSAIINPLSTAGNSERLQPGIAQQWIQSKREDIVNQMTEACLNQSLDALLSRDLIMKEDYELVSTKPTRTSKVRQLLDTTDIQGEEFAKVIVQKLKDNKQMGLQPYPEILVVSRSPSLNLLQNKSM

A word on the remaining activity: it is the activity still measured, relative to the control. Regarding `CN(C)S(=O)(=O)c1c(F)c(F)c(F)c(F)c1C(=O)N1CCC[C@@H](n2nc(-c3ccc(Oc4ccccc4)cc3)c3c(N)ncnc32)C1` [Compound I-31, (R)-2-(3-(4-amino-3-(4-phenoxyphenyl)-1H-pyrazolo[3,4-d]pyrimidin-1-yl)piperidine-1-carbonyl)-3,4,5,6-tetrafluoro-N,N-dimethylbenzenesulfonamide], the remaining activity at 1 µM is over 90% at EGFR; under 50% at BMX; over 90% at JAK3; 50 to 90% at FGFR4; 50 to 90% on RIPK2. Also, the remaining activity at 10 µM is over 90% on EGFR; under 50% at BMX; over 90% at JAK3; over 90% at FGFR4; over 90% on RIPK2.

Take `CS(=O)(=O)c1c(F)c(F)c(F)c(F)c1C(=O)NCCNc1ncnc2[nH]ccc12` [Compound I-45, N-(2-((7H-pyrrolo[2,3-d]pyrimidin-4-yl)amino)ethyl)-2,3,4,5-tetrafluoro-6-(methylsulfonyl)benzamide]: the remaining activity at 1 µM on EGFR was over 90%; at BTK it was under 50%; at BMX it was under 50%; at JAK3 it was under 50%; at FGFR4 it was over 90%; at RIPK2, under 50%. Further, the remaining activity at 10 µM at EGFR was under 50%; at BTK, under 50%; at BMX it was under 50%; at JAK3 it was under 50%; at FGFR4, under 50%; on RIPK2, 50 to 90%.

For `CN(C)S(=O)(=O)c1c(F)c(F)c(F)c(F)c1C(=O)N1CC(n2nc(-c3ccc(Oc4ccccc4)cc3)c3c(N)ncnc32)C1` [Compound I-29, 2-(3-(4-amino-3-(4-phenoxyphenyl)-1H-pyrazolo[3,4-d]pyrimidin-1-yl)azetidine-1-carbonyl)-3,4,5,6-tetrafluoro-N,N-dimethylbenzenesulfonamide], the remaining activity at 1 µM was under 50% at EGFR; under 50% on BTK; under 50% at BMX; under 50% on JAK3; 50 to 90% on FGFR4; 50 to 90% on RIPK2. Also, the remaining activity at 10 µM on EGFR was under 50%; at BTK it was under 50%; at BMX it was under 50%; on JAK3 it was under 50%; at FGFR4, over 90%; at RIPK2, 50 to 90%.

By IC50 is commonly meant the concentration needed to halve the response being measured. Turning to `CN(CCn1nc(-c2ccc(Oc3ccccc3)cc2)c2c(N)ncnc21)C(=O)c1c(F)c(F)c(F)c(F)c1S(C)(=O)=O` [Compound I-28, N-(2-(4-amino-3-(4-phenoxyphenyl)-1H-pyrazolo[3,4-d]pyrimidin-1-yl)ethyl)-2,3,4,5-tetrafluoro-N-methyl-6-(methylsulfonyl)benzamide], the remaining activity at 1 µM on EGFR was under 50%; at BTK, under 50%; on BMX, under 50%; at JAK3, over 90%; at FGFR4, under 50%; at RIPK2 it was 50 to 90%. Besides, the remaining activity at 10 µM at EGFR is under 50%; on BTK, under 50%; at BMX, under 50%; on JAK3, under 50%; at FGFR4, under 50%; at RIPK2, over 90%. Further, the IC50 on BMX (dose response) and on FGFR4 was under 1 µM throughout.

On to `CS(=O)(=O)c1c(F)c(F)c(F)c(F)c1C(=O)N1CC(n2nc(-c3ccc(Oc4ccccc4)cc3)c3c(N)ncnc32)C1` [Compound I-27, (3-(4-amino-3-(4-phenoxyphenyl)-1H-pyrazolo[3,4-d]pyrimidin-1-yl)azetidin-1-yl)(2,3,4,5-tetrafluoro-6-(methylsulfonyl)phenyl)methanone], for which the remaining activity at 1 µM was under 50% on EGFR; under 50% at BTK; under 50% at BMX; under 50% at JAK3; 50 to 90% at FGFR4; 50 to 90% on RIPK2. Further, the remaining activity at 10 µM at EGFR is under 50%; on BTK, under 50%; at BMX, under 50%; at JAK3 it was under 50%; at FGFR4, under 50%; at RIPK2, over 90%. Moreover, the IC50 at EGFR (dose response, read-out: EGFR Inhibition IC50) was under 1 µM; against JAK3 (dose response), under 1 µM.

As to `CN(CCn1nc(-c2ccc(Oc3ccccc3)cc2)c2c(N)ncnc21)C(=O)c1c(F)c(F)c(F)c(F)c1S(=O)(=O)N(C)C` [Compound I-30, N-(2-(4-amino-3-(4-phenoxyphenyl)-1H-pyrazolo[3,4-d]pyrimidin-1-yl)ethyl)-2-(N,N-dimethylsulfamoyl)-3,4,5,6-tetrafluoro-N-methylbenzamide], the remaining activity at 1 µM on EGFR is over 90%; at BTK, under 50%; at BMX it was 50 to 90%; at JAK3 it was over 90%; at FGFR4, under 50%; on RIPK2, 50 to 90%. For the same compound, the remaining activity at 10 µM at EGFR is 50 to 90%; on BTK, under 50%; on BMX it was under 50%; at JAK3 it was 50 to 90%; on FGFR4, under 50%; at RIPK2, over 90%. For the same compound, the IC50 at FGFR4 was under 1 µM.
